Each structure is given as a SMILES string.

human PAD4 (hPAD4), sequence (Q9UM07 whole entry): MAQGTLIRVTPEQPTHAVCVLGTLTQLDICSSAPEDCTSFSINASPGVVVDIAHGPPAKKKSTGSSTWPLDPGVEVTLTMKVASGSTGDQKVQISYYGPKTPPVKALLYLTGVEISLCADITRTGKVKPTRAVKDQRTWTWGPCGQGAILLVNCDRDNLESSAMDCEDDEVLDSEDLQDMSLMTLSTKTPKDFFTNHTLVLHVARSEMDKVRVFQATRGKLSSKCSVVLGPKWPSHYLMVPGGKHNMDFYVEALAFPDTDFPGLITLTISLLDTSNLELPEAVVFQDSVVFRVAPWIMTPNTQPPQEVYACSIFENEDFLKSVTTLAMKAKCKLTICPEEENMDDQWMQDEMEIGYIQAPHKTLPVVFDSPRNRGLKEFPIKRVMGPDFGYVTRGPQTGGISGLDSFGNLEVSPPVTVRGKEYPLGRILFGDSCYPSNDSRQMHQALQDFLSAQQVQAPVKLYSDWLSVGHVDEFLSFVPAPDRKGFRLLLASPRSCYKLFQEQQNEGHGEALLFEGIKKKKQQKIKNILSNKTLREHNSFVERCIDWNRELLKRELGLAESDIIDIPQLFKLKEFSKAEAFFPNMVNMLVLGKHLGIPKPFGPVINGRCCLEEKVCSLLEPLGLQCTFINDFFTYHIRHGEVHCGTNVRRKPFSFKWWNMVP

In this assay the target is human PAD4 (hPAD4) (Homo sapiens (Human), UniProt Q9UM07). The experiment in a line: RFMS Human PAD4 Functional Assay 1. The assay is classed as biochemical. Particulars: RFMS assay 1; 5 nM hPAD4, 250 μM BAEE substrate, 50 μM calcium, 37° C. The procedure, abridged:
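Recombinant hPAD4 (5 nM) was preincubated with compound (top 50 μM, 0.5% DMSO) for 30 min at 37 °C, then reacted with 250 μM BAEE for 90 min at 37 °C in pH 7.5 HEPES buffer with 50 μM calcium and 5 μM TPEN. Product was derivatized with phenyl glyoxal and quantified by RapidFire MS.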
As usually defined, the IC50 is the midpoint of a concentration-inhibition curve. `COc1cc(C(=O)N2CCC[C@@H](N)C2)cn2nc(-c3cc4ccc(N5CCC(N(C)C(C)=O)CC5)cc4n3CC3CC3)c(C)c12` [Example 252, N-[1-(2-{6-[(3R)-3-Aminopiperidine-1-carbonyl]-4-methoxy-3-methylpyrazolo[1,5-a]pyridin-2-yl}-1-(cyclopropylmethyl)-1H-indol-6-yl)piperidin-4-yl]-N-methylacetamide]: the IC50 worked out at 790 nM.

Consider `COc1cc(C(=O)N2CCC[C@@H](N)C2)cn2nc(-c3cc4ccc(N5CCC(N(C)C(C)=O)CC5)cc4n3CC3CC3)c(C)c12` [Example 253, N-[1-(2-{6-[(3R)-3-Aminopiperidine-1-carbonyl]-4-methoxy-3-methylpyrazolo[1,5-a]pyridin-2-yl}-1-(cyclopropylmethyl)-1H-indol-6-yl)piperidin-4-yl]-N-methylacetamide], for which the IC50 stood at 290 nM.

`COc1cc(C(=O)N2CCC[C@@H](N)C2)cn2nc(-c3cc4ccc(N5CCC(N(C)S(C)(=O)=O)CC5)cc4n3CC3CC3)c(C)c12` [Example 254, N-[1-(2-{6-[(3R)-3-Aminopiperidine-1-carbonyl]-4-methoxy-3-methylpyrazolo[1,5-a]pyridin-2-yl}-1-(cyclopropylmethyl)-1H-indol-6-yl)piperidin-4-yl]-N-methylmethanesulfonamide]: the half-inhibitory concentration (IC50) worked out at 320 nM.

`COC(=O)N(C)C1CCN(c2ccc3cc(-c4nn5cc(C(=O)N6CCC[C@@H](N)C6)cc(OC)c5c4C)n(CC4CC4)c3c2)CC1` [Example 255, Methyl N-[1-(2-{6-[(3R)-3-aminopiperidine-1-carbonyl]-4-methoxy-3-methylpyrazolo[1,5-a]pyridin-2-yl}-1-(cyclopropylmethyl)-1H-indol-6-yl)piperidin-4-yl]-N-methylcarbamate]: the IC50 worked out at 250 nM.

Regarding `COc1cc(C(=O)N2CCC[C@@H](N)C2)cn2nc(-c3cc4ccc(N5CC(N(C)S(C)(=O)=O)C5)cc4n3CC3CC3)c(C)c12` [Example 256, N-[1-(2-{6-[(3R)-3-Aminopiperidine-1-carbonyl]-4-methoxy-3-methylpyrazolo[1,5-a]pyridin-2-yl}-1-(cyclopropylmethyl)-1H-indol-6-yl)azetidin-3-yl]-N-methylmethanesulfonamide], the IC50 came out at 330 nM.

Consider `Cc1c(-c2cc3ccc(-c4ccccc4N4CCNC4=O)nc3n2CC2CC2)nn2cc(C(=O)N3CC4CCC3[C@@H]4N)cc(F)c12` (stereo partly drawn) [Example 257, 1-[2-(2-{6-[(7R)-7-Amino-2-azabicyclo[2.2.1]heptane-2-carbonyl]-4-fluoro-3-methylpyrazolo[1,5-a]pyridin-2-yl}-1-(cyclopropylmethyl)-1H-pyrrolo[2,3-b]pyridin-6-yl)phenyl]imidazolidin-2-one], for which the IC50 was 60 nM.

In the case of `Cc1c(-c2cc3ccc(-c4ccc(N5CCCC5=O)cc4)nc3n2CC2CC2)nn2cc(C(=O)N3CC4CCC3[C@@H]4N)cc(F)c12` (stereo partly drawn) [Example 258, 1-[4-(2-{6-[(7R)-7-Amino-2-azabicyclo[2.2.1]heptane-2-carbonyl]-4-fluoro-3-methylpyrazolo[1,5-a]pyridin-2-yl}-1-(cyclopropylmethyl)-1H-pyrrolo[2,3-b]pyridin-6-yl)phenyl]pyrrolidin-2-one], the IC50 is 220 nM.

In the case of `Cc1c(O)cccc1-c1ccc2cc(-c3nn4cc(C(=O)N5CC6CCC5[C@@H]6N)cc(F)c4c3C)n(CC3CC3)c2n1` (stereo partly drawn) [Example 259, 3-(2-{6-[(7R)-7-Amino-2-azabicyclo[2.2.1]heptane-2-carbonyl]-4-fluoro-3-methylpyrazolo[1,5-a]pyridin-2-yl}-1-(cyclopropylmethyl)-1H-pyrrolo[2,3-b]pyridin-6-yl)-2-methylphenol], the IC50 was found to be 20 nM.

For `Cc1cc(C(N)=O)c(F)cc1-c1ccc2cc(-c3nn4cc(C(=O)N5CC6CCC5[C@@H]6N)cc(F)c4c3C)n(CC3CC3)c2n1` (stereo partly drawn) [Example 260, 4-(2-{6-[(7R)-7-Amino-2-azabicyclo[2.2.1]heptane-2-carbonyl]-4-fluoro-3-methylpyrazolo[1,5-a]pyridin-2-yl}-1-(cyclopropylmethyl)-1H-pyrrolo[2,3-b]pyridin-6-yl)-2-fluoro-5-methylbenzamide], the IC50 was 220 nM.

Turning to `Cc1c(-c2cc3ccc(-c4ccc(N5CCNC5=O)cc4)nc3n2CC2CC2)nn2cc(C(=O)N3CC4CCC3[C@@H]4N)cc(F)c12` (stereo partly drawn) [Example 261, 1-[4-(2-{6-[(7R)-7-Amino-2-azabicyclo[2.2.1]heptane-2-carbonyl]-4-fluoro-3-methylpyrazolo[1,5-a]pyridin-2-yl}-1-(cyclopropylmethyl)-1H-pyrrolo[2,3-b]pyridin-6-yl)phenyl]imidazolidin-2-one], the IC50 came to 420 nM.

As to `Cc1cc(-c2ccc3cc(-c4nn5cc(C(=O)N6CC7CCC6[C@@H]7N)cc(F)c5c4C)n(CC4CC4)c3n2)ccc1C(N)=O` (stereo partly drawn) [Example 262, 4-(2-{6-[(7R)-7-Amino-2-azabicyclo[2.2.1]heptane-2-carbonyl]-4-fluoro-3-methylpyrazolo[1,5-a]pyridin-2-yl}-1-(cyclopropylmethyl)-1H-pyrrolo[2,3-b]pyridin-6-yl)-2-methylbenzamide], the IC50 worked out at 120 nM.

For the compound `Cc1c(-c2cc3ccc(-c4ccc(C(N)=O)cc4)nc3n2CC2CC2)nn2cc(C(=O)N3CC4CCC3[C@@H]4N)cc(F)c12` (stereo partly drawn) [Example 263, 4-(2-{6-[(7R)-7-Amino-2-azabicyclo[2.2.1]heptane-2-carbonyl]-4-fluoro-3-methylpyrazolo[1,5-a]pyridin-2-yl}-1-(cyclopropylmethyl)-1H-pyrrolo[2,3-b]pyridin-6-yl)benzamide], the IC50 worked out at 90 nM.

Turning to `CNC(=O)c1ccc(-c2ccc3cc(-c4nn5cc(C(=O)N6CC7CCC6[C@@H]7N)cc(F)c5c4C)n(CC4CC4)c3n2)cn1` (stereo partly drawn) [Example 264, 5-(2-{6-[(7R)-7-Amino-2-azabicyclo[2.2.1]heptane-2-carbonyl]-4-fluoro-3-methylpyrazolo[1,5-a]pyridin-2-yl}-1-(cyclopropylmethyl)-1H-pyrrolo[2,3-b]pyridin-6-yl)-N-methylpyridine-2-carboxamide], the IC50 is 10 nM.

As for `Cc1c(-c2cc3ccc(N4CCC[C@@H](O)C4)nc3n2CC2CC2)nn2cc(C(=O)N3CC4CCC3[C@@H]4N)cc(F)c12` (stereo partly drawn) [Example 265, ((7R)-7-Amino-2-azabicyclo[2.2.1]heptan-2-yl)(2-(1-(cyclopropylmethyl)-6-((R)-3-hydroxypiperidin-1-yl)-1H-pyrrolo[2,3-b]pyridin-2-yl)-4-fluoro-3-methylpyrazolo[1,5-a]pyridin-6-yl)methanone], the IC50 was determined as 110 nM.

In the case of `Cc1c(-c2cc3ccc(N4CCOCC4)nc3n2CC2CC2)nn2cc(C(=O)N3CC4CCC3[C@@H]4N)cc(F)c12` (stereo partly drawn) [Example 266, (7R)-2-{2-[1-(Cyclopropylmethyl)-6-(morpholin-4-yl)-1H-pyrrolo[2,3-b]pyridin-2-yl]-4-fluoro-3-methylpyrazolo[1,5-a]pyridine-6-carbonyl}-2-azabicyclo[2.2.1]heptan-7-amine], the IC50 amounted to 280 nM.

Consider `Cc1c(-c2cc3ccc(N4CCOCC4=O)nc3n2CC2CC2)nn2cc(C(=O)N3CC4CCC3[C@@H]4N)cc(F)c12` (stereo partly drawn) [Example 267, 4-(2-{6-[(7R)-7-Amino-2-azabicyclo[2.2.1]heptane-2-carbonyl]-4-fluoro-3-methylpyrazolo[1,5-a]pyridin-2-yl}-1-(cyclopropylmethyl)-1H-pyrrolo[2,3-b]pyridin-6-yl)morpholin-3-one], for which the IC50 came out at 50 nM.

As to `Cc1c(-c2cc3ccc(N4CCC(S(C)(=O)=O)CC4)nc3n2CC2CC2)nn2cc(C(=O)N3CC4CCC3[C@@H]4N)cc(F)c12` (stereo partly drawn) [Example 268, (7R)-2-{2-[1-(Cyclopropylmethyl)-6-(4-methanesulfonylpiperidin-1-yl)-1H-pyrrolo[2,3-b]pyridin-2-yl]-4-fluoro-3-methylpyrazolo[1,5-a]pyridine-6-carbonyl}-2-azabicyclo[2.2.1]heptan-7-amine], the IC50 amounted to 40 nM.

Turning to `Cc1c(-c2cc3ccc(N4CCC5(CC4)CN(C)C(=O)O5)nc3n2CC2CC2)nn2cc(C(=O)N3CCC[C@@H](N)C3)cc(F)c12` [Example 269, 8-(2-{6-[(3R)-3-Aminopiperidine-1-carbonyl]-4-fluoro-3-methylpyrazolo[1,5-a]pyridin-2-yl}-1-(cyclopropylmethyl)-1H-pyrrolo[2,3-b]pyridin-6-yl)-3-methyl-1-oxa-3,8-diazaspiro[4.5]decan-2-one], the IC50 is 540 nM.

For the compound `Cc1c(-c2cc3ccc(N4CCC(S(C)(=O)=O)CC4)nc3n2CC2CC2)nn2cc(C(=O)N3CCC[C@@H](N)C3)cc(F)c12` [Example 270, (3R)-1-{2-[1-(Cyclopropylmethyl)-6-(4-methanesulfonylpiperidin-1-yl)-1H-pyrrolo[2,3-b]pyridin-2-yl]-4-fluoro-3-methylpyrazolo[1,5-a]pyridine-6-carbonyl}piperidin-3-amine], the IC50 was 2110 nM.

Turning to `CC(=O)N(C)C1CCN(c2ccc3cc(-c4nn5cc(C(=O)N6CCC[C@@H](N)C6)cc(F)c5c4C)n(CC4CC4)c3n2)CC1` [Example 271, N-[1-(2-{6-[(3R)-3-Aminopiperidine-1-carbonyl]-4-fluoro-3-methylpyrazolo[1,5-a]pyridin-2-yl}-1-(cyclopropylmethyl)-1H-pyrrolo[2,3-b]pyridin-6-yl)piperidin-4-yl]-N-methylacetamide], the IC50 is 2070 nM.

`COC(=O)N(C)C1CCN(c2ccc3cc(-c4nn5cc(C(=O)N6CCC[C@@H](N)C6)cc(F)c5c4C)n(CC4CC4)c3n2)CC1` [Example 272, Methyl N-[1-(2-{6-[(3R)-3-aminopiperidine-1-carbonyl]-4-fluoro-3-methylpyrazolo[1,5-a]pyridin-2-yl}-1-(cyclopropylmethyl)-1H-pyrrolo[2,3-b]pyridin-6-yl)piperidin-4-yl]-N-methylcarbamate]: the IC50 came to 3810 nM.

(Values after US12473304B2, “Heterocyclic PAD4 inhibitors” (BRISTOL-MYERS SQUIBB COMPANY, priority 2020, dated 2025).)
